This is an account of results in patent publication US4634783A, “Novel amidine compound” (Torii & Co. Ltd., priority 1983, dated 1987).

One data set deals with T1, Trypsin (Bos taurus, UniProt P00760).
T1 sequence (P00760 24-246): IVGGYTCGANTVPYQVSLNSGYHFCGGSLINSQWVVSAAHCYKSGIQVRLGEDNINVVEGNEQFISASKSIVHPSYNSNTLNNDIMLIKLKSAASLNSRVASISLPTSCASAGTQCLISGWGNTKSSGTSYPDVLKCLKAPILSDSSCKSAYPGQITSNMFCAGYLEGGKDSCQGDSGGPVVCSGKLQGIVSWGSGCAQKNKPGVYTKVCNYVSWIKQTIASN
The data set is described as follows: anti-trypsin activity (hydrolysis of TAME). Conditions: read-out: ID50 Trypsin. The format is biochemical. How it is done: (§1) The anti-trypsin, anti-plasmin, anti-kallikrein and anti-thrombin activities were determined according to the method of Muramatsu et al. [M. Muramatsu, T. Onishi, S. Makino, Y. Hayashi and S. Fujii, J. of Biochem., 58, 214 (1965)]. […] The compound No. corresponds to the compound number shown in Examples.

For another data set, the target named is Plasmin (Homo sapiens, UniProt P00747). Description: anti-plasmin activity (hydrolysis of TAME). The format is biochemical. How it is done:
as §1

The subject of another data set is Kallikrein. Description: anti-kallikrein activity (hydrolysis of TAME). The class given is biochemical. How it is done: as §1
A further data set concerns the target Thrombin (Homo sapiens, UniProt P00734). Description: biochemical.
A further data set addresses T2, C1r (Homo sapiens, UniProt P00736).
T2 sequence (P00736 464-705 limits assumed): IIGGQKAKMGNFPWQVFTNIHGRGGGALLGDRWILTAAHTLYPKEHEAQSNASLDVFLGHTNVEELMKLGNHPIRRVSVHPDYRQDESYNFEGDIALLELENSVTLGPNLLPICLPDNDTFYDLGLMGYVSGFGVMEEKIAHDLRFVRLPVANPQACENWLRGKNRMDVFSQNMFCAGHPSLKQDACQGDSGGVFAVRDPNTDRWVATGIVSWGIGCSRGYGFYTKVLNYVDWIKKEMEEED
T2 sequence (P00736 18-463 limits assumed): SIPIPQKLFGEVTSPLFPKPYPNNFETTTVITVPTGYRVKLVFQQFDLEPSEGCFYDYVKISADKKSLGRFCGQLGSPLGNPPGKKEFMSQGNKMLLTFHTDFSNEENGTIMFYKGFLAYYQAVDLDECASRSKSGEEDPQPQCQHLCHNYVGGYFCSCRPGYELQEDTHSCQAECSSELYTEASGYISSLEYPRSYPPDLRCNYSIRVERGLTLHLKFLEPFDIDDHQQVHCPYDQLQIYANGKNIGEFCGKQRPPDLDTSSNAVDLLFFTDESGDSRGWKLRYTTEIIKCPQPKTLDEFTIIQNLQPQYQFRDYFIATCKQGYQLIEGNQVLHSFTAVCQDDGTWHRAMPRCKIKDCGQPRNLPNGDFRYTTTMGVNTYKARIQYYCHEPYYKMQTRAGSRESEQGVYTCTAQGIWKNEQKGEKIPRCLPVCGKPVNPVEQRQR
Description: anti-C1 esterase (C1r) activity (hydrolysis of AAME). The class given is biochemical. On the procedure:
(§2) The anti-C1 esterase (C1r, C1s) activity was determined according to the method of Okamura et al. [K. Okamura, M. Muramatsu and B. Fujii, Biochem. Biophys. Acta, 295, 252-257 (1973)]. The inhibition of complement mediated hemolysis was determined according to the method of Baker et al. [B. R. Baker and E. H. Erickson, J. Med. Chem., 12, 408-414 (1969)]. The figures in Table 2 have the following meanings:
C1r: Molar concentration of the test compound which inhibits 50% of the ability of C1r to hydrolyse AAME (acetylarginin methyl ester) (ID50).

A further data set concerns the target T3, C1s (Homo sapiens, UniProt P09871).
T3 sequence (P09871 438-688 limits assumed): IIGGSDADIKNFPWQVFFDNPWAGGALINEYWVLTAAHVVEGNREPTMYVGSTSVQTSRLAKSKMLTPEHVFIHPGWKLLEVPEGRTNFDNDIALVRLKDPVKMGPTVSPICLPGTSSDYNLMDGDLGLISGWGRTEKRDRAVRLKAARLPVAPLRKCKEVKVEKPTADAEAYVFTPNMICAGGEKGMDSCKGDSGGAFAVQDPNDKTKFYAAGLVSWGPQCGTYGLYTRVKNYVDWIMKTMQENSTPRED
T3 sequence (P09871 16-437 limits assumed): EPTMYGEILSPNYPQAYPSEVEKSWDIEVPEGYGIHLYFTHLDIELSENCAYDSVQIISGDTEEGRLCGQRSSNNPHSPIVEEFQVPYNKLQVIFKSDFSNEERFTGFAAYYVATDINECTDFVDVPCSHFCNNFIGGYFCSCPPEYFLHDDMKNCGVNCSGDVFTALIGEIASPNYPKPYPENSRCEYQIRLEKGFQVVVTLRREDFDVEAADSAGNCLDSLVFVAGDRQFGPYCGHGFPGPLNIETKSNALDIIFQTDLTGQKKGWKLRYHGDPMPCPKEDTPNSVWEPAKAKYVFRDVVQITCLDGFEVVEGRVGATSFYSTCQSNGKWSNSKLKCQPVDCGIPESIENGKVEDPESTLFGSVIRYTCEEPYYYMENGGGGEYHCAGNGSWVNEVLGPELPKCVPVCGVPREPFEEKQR
Description: anti-C1 esterase (C1s) activity (hydrolysis of ATEE). The class given is biochemical. On the procedure: as §2
C1s: Molar concentration of the test compound which inhibits 50% of the ability of C1s to hydrolyse ATEE (acetyltyrosin ethyl ester) (ID50).

Data set [1] has as its system complement mediated hemolysis. Description: inhibition of complement mediated hemolysis. The format is cell-based. On the procedure: The complement mediated hemolysis is widely used as a means to determine the titration of complement. The principle of this method is based on the fact that hemolysis is caused by the activation of complement, when the latter is added to a complex (immune complex) of erythrocytes and the antibody thereof. The degree of hemolysis varies in proportion to the amount of complement added. Therefore, when a known amount of complement admixed with a C1 esterase inhibitor is used, the hemolysis must be suppressed in proportion to the inhibitory activity.
as §2
Inhibition of complement mediated hemolysis (%): The inhibitory activity is shown in terms of percent inhibition of the compound at varied concentrations: […]

For the next data set, the system named is Forssman shock. Description: Forssman shock. To be noted: test compound 3 mg/kg before hemolysin i.v.; male Hartlay guinea pig; control death at 278, 318, 296 sec. The class given is in vivo. An excerpt:
Quite different from other animals, guinea pig has on the surface of its organs a specific antigen called Forssman antigen which specifically reacts with the antibody of sheep erythrocyte. Forssman shock is based on the above principle and is a shock caused by the administration of antibody of sheep erythrocyte to a guinea pig. The Forssman shock was investigated in detail by many researches and it was definitely shown that this shock is a model case where the complement plays the principal part and that the shock is associated with a classical pathway in which the complement system is activated progressively starting from C1. Since the participation of complement in autoimmune diseases has been established, the Forssman shock can be said to be a useful means for testing a drug for autoimmune diseases. A drug effective for the treatment of Forssman shock is useful as a drug of autoimmune diseases.
The experiment was performed according to the method of I. G. Offerness et al. [Biochem. Pharmacol., 27 (14), 1873-1878 (1978)]. Male Hartlay guinea pig of about 300 g in body weight was used. Each guinea pig of the control group was administered intravenously with hemolysin (minimum dose to cause the shock) (commercial hemolysin, 5,000 U as assayed by the method of Ogata) and the time elapsed until death was observed. […]

Data set [2] can be described thus: Toxicity: median lethal dose (LD50). To be noted: in vivo, mouse.

Chain of Plasmin (P00747 581-810 limits assumed, species assumed): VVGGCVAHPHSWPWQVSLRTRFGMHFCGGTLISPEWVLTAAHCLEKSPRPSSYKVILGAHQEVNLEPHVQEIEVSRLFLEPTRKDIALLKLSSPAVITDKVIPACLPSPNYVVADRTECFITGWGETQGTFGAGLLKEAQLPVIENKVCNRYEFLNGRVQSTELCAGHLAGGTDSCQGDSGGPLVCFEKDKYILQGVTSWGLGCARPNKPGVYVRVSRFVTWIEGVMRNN
Chain of Plasmin (P00747 97-580 limits assumed, species assumed): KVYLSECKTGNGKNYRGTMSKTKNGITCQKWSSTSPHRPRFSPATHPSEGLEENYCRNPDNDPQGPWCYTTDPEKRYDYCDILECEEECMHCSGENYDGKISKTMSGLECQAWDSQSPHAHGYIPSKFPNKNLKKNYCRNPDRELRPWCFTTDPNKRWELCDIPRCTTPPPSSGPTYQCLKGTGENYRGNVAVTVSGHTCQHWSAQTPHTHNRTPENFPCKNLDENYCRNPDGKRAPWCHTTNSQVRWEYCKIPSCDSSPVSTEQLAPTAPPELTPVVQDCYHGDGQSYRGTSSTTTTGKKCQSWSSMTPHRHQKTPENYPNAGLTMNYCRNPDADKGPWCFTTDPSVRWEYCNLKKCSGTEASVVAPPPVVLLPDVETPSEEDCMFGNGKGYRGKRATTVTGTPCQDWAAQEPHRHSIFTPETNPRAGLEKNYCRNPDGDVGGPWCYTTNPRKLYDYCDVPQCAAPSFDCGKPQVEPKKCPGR

For the molecule `COc1ccc(C(=O)Oc2ccc3cc(C(=N)N)ccc3c2)o1` [Compound No. 1, 6-amidino-2-naphthyl 5-methoxy-furan-2-carboxylate], the IC50 at Trypsin was found to be 0.01 µM; on Plasmin (TAME hydrolysis, read-out: ID50 Plasmin), 0.4 µM; in the data set with Kallikrein (TAME hydrolysis, read-out: ID50 Kallikrein), 0.3 µM; at Thrombin (TAME hydrolysis, read-out: ID50 Thrombin) it was 0.2 µM; at C1r (AAME hydrolysis, read-out: ID50 C1r), 0.06 µM; at C1s (ATEE hydrolysis, read-out: ID50 C1s), 0.2 µM. The “Inhibition of complement mediated hemolysis” value in data set [1] (1 × 10^-4) was found to be 100%; in data set [1] (1 × 10^-5) it was 100%; in data set [1] (1 × 10^-6) it was 98%; in data set [1] (1 × 10^-7), 99%. Also, the “time elapsed until death (survival) in Forssman shock” value with Forssman shock is reported as “Survival”. The LD50 in data set [2] (ip, I.P.) was found to be 200 mg/kg; in [2] (po, P.O.), 2500 mg/kg.

In the case of `N=C(N)c1ccc2cc(OC(=O)c3ccc([N+](=O)[O-])o3)ccc2c1` [compound 65, 6-amidino-2-naphthyl 5-nitrofuran-2-carboxylate], on Trypsin, the IC50 came to 0.8 µM. In addition, the inhibition at 10 µM at Plasmin (at 1×10^-5 M, figure in parentheses, read-out: percentage inhibition Plasmin) is less than 10%; on Thrombin (at 1×10^-5 M, figure in parentheses, read-out: percentage inhibition Thrombin) it was 13%; on C1r (at 1×10^-5 M, figure in parentheses, read-out: percent inhibition C1r), 30%; at C1s (at 1×10^-5 M, figure in parentheses, read-out: percent inhibition C1s), 28%. Besides, in the data set on Kallikrein (at 1×10^-5 M, figure in parentheses), the “percentage inhibition Kallikrein” value was “NE (the percentage inhibition is less than 10%)”. Moreover, the “Inhibition of complement mediated hemolysis” value came to 100% in data set [1] (1 × 10^-4), 100% in data set [1] (1 × 10^-5), 89% in [1] (1 × 10^-6) and 80% in [1] (1 × 10^-7).
